Reference: EP4588921A1, “FREE BASE CRYSTAL FORM OF POLYCYCLIC COMPOUND OF NITROGEN-CONTAINING HETEROCYCLE, AND PREPARATION METHOD THEREFOR” (Jiangsu Hansoh Pharmaceutical Group Co., Ltd., priority 2022, dated 2024)
Values after ≈ are worked out from the molar mass of the structure shown. Like-named read-outs stand apart in the source and are kept apart here.

Legend:
[1] = Solubility experiments in different media (thermodynamic solubility); format: physicochemical; details: thermodynamic from solid
Description: The solubility of the free base crystal form I and the free base crystal form II in media such as pH 1.0-8.0 USP buffer, artificial simulated gastric fluid (FaSSGF), fasted-state artificial simulated intestinal fluid (FaSSIF), fed-state artificial simulated intestinal fluid (FeSSIF) and pure water was compared to provide a basis for the evaluation of drugability.

[2] = PK studies in animals of the free base crystal forms; format: in vivo; details: Sprague-Dawley (SD), rat, 30 mg/kg, 30MPK, 0.5%HPMC suspension, SD rats, plasma
Experimental: The pharmacokinetic of the free base crystal form after a single intravenous administration was studied, and the bioavailability of the free base crystal form I and the free base crystal form II after oral administration were calculated.
The free base crystal form I was suspended with 0.5% CMCC-Na aqueous solution, and the free base crystal form […] aqueous solution. After uniformity, the suspensions were administered intragastrically to rats in triplicate at a dosage of 5 mg/kg (30 mg/kg for suspension) for the free base crystal form I and a dosage of 30 mg/kg (suspension) for the free base crystal form II. The free base crystal form I was dissolved with 20% HP-β-CD aqueous solution to obtain a clear solution, and the clear solution was filtered through a filter membrane. The filtered solution was administered via injection to rats in triplicate.

[3] = Hygroscopicity experiment; format: physicochemical; details: at 80%RH
Experimental: The hygroscopicity of the crystal form I and the crystal form II of compound 9 were investigated under different relative humidity to provide a basis for the storage of the compounds.
The crystal form I and the crystal form II of compound 9 were placed in saturated water vapor at different relative humidities to allow the compound to reach a dynamic equilibrium with the water vapor, and the percentage of weight gain after moisture absorption of the compound after equilibrium was calculated.

[4] = Solid stability experiment (related substances by HPLC); format: physicochemical
Experimental: The compound physical and chemical stability at high temperature of 60°C, high humidity of 92.5% RH and both high temperature of 50°C and high humidity of 75% RH of the free base crystal form I and the free base crystal form II were investigated to provide a basis for the storage of the compounds.
About 2 mg of the free base crystal form I and the free base crystal form II were taken respectively, and changes of related substances in the crystal forms at high temperature of 60°C, high humidity of 92.5% RH, and both high temperature of 50°C and high humidity of 75%RH for 7 days and 14 days were investigated. The changes of related substances were calculated by HPLC and the chromatographic peak area normalization method.

[5] = Room temperature, 92.5%RH, 7 days
[6] = Room temperature, 92.5%RH, 14 days

solubility at 2 h ([1]; FaSSCoF, 37 °C, fassgf or other biorelevant, FaSSCoF, read-out: Solubility of free base crystal form II): 51 µg/mL (≈ 109 µM) | solubility at 2 h ([1]; FaSSGF (artificial simulated gastric fluid), 37 °C, fassgf or other biorelevant, FaSSGF, read-out: Solubility of free base crystal form II): 131 µg/mL (≈ 281 µM) | solubility at 2 h ([1]; FaSSIF, 37 °C, fassif, FaSSIF, read-out: Solubility of free base crystal form II): 60 µg/mL (≈ 129 µM) | solubility at 2 h ([1]; FeSSCoF, 37 °C, fassgf or other biorelevant, FeSSCoF, read-out: Solubility of free base crystal form II): 63 µg/mL (≈ 135 µM) | solubility at 2 h ([1]; FeSSIF, 37 °C, fessif, FeSSIF, read-out: Solubility of free base crystal form II): 100 µg/mL (≈ 214 µM) | solubility at 2 h ([1]; USP buffer pH 1.0, 37 °C, pH 1, simulated gastric fluid, pH 1.0, read-out: Solubility of free base crystal form II): 599 µg/mL (≈ 1280 µM) | solubility at 2 h ([1]; USP buffer pH 2.0, 37 °C, pH 2, simulated gastric fluid, pH 2.0, read-out: Solubility of free base crystal form II): 89 µg/mL (≈ 191 µM) | solubility at 2 h ([1]; USP buffer pH 3.0, 37 °C, pH 3, aqueous buffer, pH 3.0, read-out: Solubility of free base crystal form II): 55 µg/mL (≈ 118 µM) | solubility at 2 h ([1]; USP buffer pH 4.5, 37 °C, pH 4.5, aqueous buffer, pH 4.5, read-out: Solubility of free base crystal form II): 53 µg/mL (≈ 114 µM) | solubility at 2 h ([1]; USP buffer pH 6.8, 37 °C, pH 6.8, aqueous buffer, pH 6.8, read-out: Solubility of free base crystal form II): 49 µg/mL (≈ 105 µM) | solubility at 2 h ([1]; USP buffer, 37 °C, pH 4, aqueous buffer, pH 4.0, read-out: Solubility of free base crystal form II): 51 µg/mL (≈ 109 µM) | solubility at 2 h ([1]; USP buffer, 37 °C, pH 5, aqueous buffer, pH 5.0, read-out: Solubility of free base crystal form II): 50 µg/mL (≈ 107 µM) | solubility at 2 h ([1]; USP buffer, 37 °C, pH 6, aqueous buffer, pH 6.0, read-out: Solubility of free base crystal form II): 50 µg/mL (≈ 107 µM) | solubility at 2 h ([1]; USP buffer, 37 °C, pH 7, aqueous buffer, pH 7.0, read-out: Solubility of free base crystal form II): 47 µg/mL (≈ 101 µM) | solubility at 2 h ([1]; USP buffer, 37 °C, pH 8, aqueous buffer, pH 8.0, read-out: Solubility of free base crystal form II): 47 µg/mL (≈ 101 µM) | solubility at 2 h ([1]; water, 37 °C, water, H2O, read-out: Solubility of free base crystal form II): 55 µg/mL (≈ 118 µM) | Tmax ([2]; PO, read-out: tmax): 2 h | AUC(0-inf) ([2]; po): 13600 ng·h/mL | AUC(0-t) ([2]; po): 11800 ng·h/mL | Cmax ([2]; po): 2520 ng/mL | bioavailability ([2]; po): 39.6% | half-life ([2]; po): 2.4 h | MRT inf ([2]; po, PO, read-out: MRT 0-∞): 4.3 h | weight gain after moisture absorption [3]: about 0.2053% | % Increase in total impurity ([4]; 50°C, 75%RH, 7 days): <0.10% | % Maximum increase in single impurity ([4]; 50°C, 75%RH, 7 days): <0.10% | % Increase in total impurity ([4]; 50°C, 75%RH, 14 days): <0.10% | % Maximum increase in single impurity ([4]; 50°C, 75%RH, 14 days): <0.10% | % Increase in total impurity ([4]; 60°C, 7 days): <0.10% | % Maximum increase in single impurity ([4]; 60°C, 7 days): <0.10% | % Increase in total impurity ([4]; 60°C, 14 days): <0.10% | % Maximum increase in single impurity ([4]; 60°C, 14 days): <0.10% | % Increase in total impurity [4, 5]: <0.10% | % Maximum increase in single impurity [4, 5]: <0.10% | % Increase in total impurity [4, 6]: <0.11% | % Maximum increase in single impurity [4, 6]: <0.10%
Compound: CC(C)(O)c1nc(N2C[C@H]3CN(C(=O)c4c(F)cccc4-c4ncccn4)C[C@H]3C2)ncc1F [free base crystal form II, ((3aR,6aS)-5-(5-fluoro-4-(2-hydroxyprop-2-yl)pyrimidin-2-yl)hexahydropyrrolo [3,4-c]pyrrol-2(1H)-yl)(2-fluoro-6-(pyrimidin-2-yl)phenyl)methanone]
